Assay results: patent publication US9610234B2, “Combinations of alkylamidothiazoles and preservatives” (Beiersdorf AG, priority 2013, dated 2017)

Target: T1, human tyrosinase (Homo sapiens, UniProt P14679)
T1 sequence (P14679 19-529): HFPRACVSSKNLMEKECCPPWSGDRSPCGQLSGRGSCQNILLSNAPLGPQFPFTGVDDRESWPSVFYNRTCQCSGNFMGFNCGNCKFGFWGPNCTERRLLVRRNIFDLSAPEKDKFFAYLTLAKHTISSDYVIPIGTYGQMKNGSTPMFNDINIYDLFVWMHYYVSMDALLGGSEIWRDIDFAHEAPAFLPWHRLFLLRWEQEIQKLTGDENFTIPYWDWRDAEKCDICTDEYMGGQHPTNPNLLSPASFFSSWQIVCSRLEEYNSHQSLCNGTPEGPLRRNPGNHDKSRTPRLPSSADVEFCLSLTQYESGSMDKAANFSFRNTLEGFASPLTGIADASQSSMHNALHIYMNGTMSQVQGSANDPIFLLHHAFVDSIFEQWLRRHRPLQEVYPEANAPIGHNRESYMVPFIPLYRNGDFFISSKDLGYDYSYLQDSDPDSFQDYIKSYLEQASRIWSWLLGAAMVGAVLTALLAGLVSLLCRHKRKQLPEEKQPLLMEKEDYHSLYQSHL
Experiment: Enzyme test: conversion of L-DOPA to L-dopaquinone by human tyrosinase (MBTH, absorption at 490 nm)
Format: biochemical
Conditions: tyrosinase activity
Method: Method Description of the Effectiveness Investigations:
In this literature-known method (Winder, A. J. and Harris, H., New assays for the tyrosine hydroxylase and dopa oxidase activities of tyrosinase. Eur. J. Biochem. (1991), 198, 317-26), the reaction product L-dopaquinone is reacted with MBTH (3-methyl-2-benzothiazoline hydrazone) to give a pink-colored substance, the increase of which is measured over time by absorption at 490 nm. […] It can be concluded from this that the substances according to the invention are extremely effective pigmentation-inhibiting substances.

SMILES	Inhibition (% of the control) (concentration 0.4 μg/mL)	Inhibition (% of the control) (concentration 200 μg/mL)
CC(C)C(=O)Nc1nc(-c2ccc(O)cc2O)cs1 [N-(4-(2,4-dihydroxyphenyl)thiazol-2-yl)isobutyramide]	38.2 % of the control	–
C/C=C/C=C/C(=O)[O-].[K+] [Potassium sorbate]	–	42.0 % of the control
O=C([O-])c1ccccc1.[Na+] [Sodium benzoate]	–	43.6 % of the control
